Results taken from US7572768B2, “Methods for identifying compounds for regulating muscle mass or function using corticotropin releasing factor receptors” (priority 2001, dated 2009).

Key:
[1] = tested on: denervation-induced atrophy of skeletal muscle; assay: adrenalectomized rat sciatic nerve denervation-induced atrophy model; type: in vivo; settings: male adrenalectomized rats, 0.003-0.03 mg/kg s.c. twice daily + 30 mg/kg theophylline, nine days
Protocol: Legend: A—physiological saline (control); B—sauvagine (0.003 mg/kg)+theophylline; C—sauvagine (0.01 mg/kg)+theophylline; D—sauvagine (0.03 mg/kg)+theophylline; #—p≦0.05 compared to corresponding controls. Following denervation of the right sciatic nerve, male adrenalectomized rats (adrenalectomized rats were used to remove the skeletal muscle atrophy-inducing effects of activation of the HPA axis via agonisms of the CRF1R) were injected subcutaneously in the midscapular region twice daily, with either sauvagine or vehicle control (physiological saline) for nine days at the doses shown above. Sauvagine was co-administered with 30 mg/kg theophylline. On day nine, the tibialis anterior, extensor digitorum longus (EDL), soleus, medial gastrocnemius, and plantaris muscles were removed and weighed to determine the degree of atrophy.
(§1) The sciatic nerve denervation atrophy model involves anesthetizing the animal followed by the surgical removal of a short segment of either the right or left sciatic nerve, e.g., in mice the sciatic nerve is isolated approximately at the midpoint along the femur and a 3-5 mm segment is removed. This denervates the lower hind limb musculature resulting in atrophy of these muscles. Typically, innervation to the biceps femoris is left intact to provide satisfactory motion of the knee for virtually normal ambulation. Typically, in untreated animals, muscle mass of the denervated muscles is reduced 30-50% ten days following denervation. Following denervation, test compounds are administered e.g., by injection or by continuous infusion, e.g., via implantation of an osmotic minipump (e.g., Alzet, Palo Alto, Calif.), to determine their effect on denervation induced skeletal muscle atrophy. At various times following denervation, the animals are euthanized and lower leg muscles are dissected rapidly from both the denervated and nondenervated legs, the muscles, cleaned of tendons and connective tissue, are weighed. The extent of atrophy in the affected muscles is analyzed, for example, by measuring muscle mass, muscle cross-sectional area, myofiber cross-sectional area or contractile protein content.

[2] = tested on: denervation-induced atrophy of skeletal muscle; assay: mouse sciatic nerve denervation atrophy model; type: in vivo
Protocol: Legend: A—physiological saline (control); B—sauvagine (0.01 mg/kg)+theophylline; C—sauvagine (0.03 mg/kg)+theophylline; D—sauvagine (0.1 mg/kg)+theophylline; E—sauvagine (1.0 mg/kg)+theophylline; *—p≦0.05 compared to saline. Following denervation of the right sciatic nerve, male mice were injected subcutaneously in the midscapular region twice daily with sauvagine, at the doses indicated above or vehicle control (physiological saline) for nine days. Sauvagine was co-administered with 30 mg/kg theophylline. On day nine, the medial gastrocnemius muscle was removed and weighed to determine the degree of atrophy.
Legend: A—water (control); B—sauvagine (0.1 mg/kg/d); C—sauvagine (0.3 mg/kg/d); D—sauvagine (1.0 mg/kg/d); *—p≦0.05 compared to water. Following denervation of the right sciatic nerve, male mice were dosed with either sauvagine or vehicle control (physiological saline) by continuous infusion using an Alzet osmotic minipump at 5 μl/hr until the end of the experimental period (without additional theophylline). The daily delivered dose of sauvagine is indicated above. Minipump implantation was performed at the time of sciatic nerve denervation. On day nine the tibialis anterior muscle was removed and weighed to determine the degree of atrophy.
Legend: A—water (control); B—sauvagine (1 mg/kg/d); C—urocortin (1.0 mg/kg/d); *—p≦0.05 compared to water. Following denervation of the right sciatic nerve, male mice were dosed with the above indicated agents or vehicle control (physiological saline) by continuous infusion using an Alzet osmotic minipump at 5 μl/hr until the end of the experimental period (without additional theophylline). The daily delivered dose of the agents is indicated above. Minipump implantation was performed at the same time as the sciatic nerve denervation. On day nine the tibialis anterior muscle was removed and weighed to determine the degree of atrophy.
Legend: A-C—wild-type mice; D-F—CRF2R knockout mice. A and D—water (control); B and E—sauvagine (0.3 mg/kg/d); C and F—sauvagine (1.0 mg/kg/d); *—p≦0.05 compared to saline. Following denervation of the right sciatic nerve, female wild-type and CRF2R knockout mice were dosed with sauvagine or vehicle control by continuous infusion using an Alzet osmotic minipump at 5 μl/hr for nine days at the daily delivered dose indicated above. On day nine, the tibialis anterior muscle was removed and weighed to determine the degree of atrophy.
as §1

Compound: CC[C@H](C)[C@H](NC(=O)[C@@H](NC(=O)[C@H](CC(=O)O)NC(=O)[C@H](CC(C)C)NC(=O)[C@H](CC(C)C)NC(=O)[C@H](CC(C)C)NC(=O)[C@H](CCCNC(=N)N)NC(=O)[C@H](CC(N)=O)NC(=O)[C@H](CC(N)=O)NC(=O)[C@H](C)NC(=O)[C@H](C)NC(=O)[C@H](CCC(N)=O)NC(=O)[C@H](CCC(N)=O)NC(=O)[C@H](CCCCN)NC(=O)[C@H](CCC(=O)O)NC(=O)[C@H](CCCCN)NC(=O)[C@H](CCC(=O)O)NC(=O)[C@H](CCC(N)=O)NC(=O)[C@H](CCCCN)NC(=O)[C@H](CCC(=O)O)NC(=O)[C@@H](NC(=O)[C@H](CCC(=O)O)NC(=O)[C@@H](NC(=O)[C@H](CCSC)NC(=O)[C@H](CCCCN)NC(=O)[C@H](CCCNC(=N)N)NC(=O)[C@H](CC(C)C)NC(=O)[C@H](CC(C)C)NC(=O)[C@H](CCC(=O)O)NC(=O)[C@H](CC(C)C)NC(=O)[C@H](CO)NC(=O)[C@H](CC(C)C)NC(=O)[C@H](CC(=O)O)NC(=O)[C@@H](NC(=O)[C@H](CO)NC(=O)[C@@H](NC(=O)[C@@H]1CCCN1C(=O)[C@@H]1CCCN1C(=O)CNC(=O)[C@@H]1CCC(=O)N1)[C@@H](C)CC)[C@@H](C)CC)[C@@H](C)CC)[C@@H](C)CC)[C@@H](C)O)C(N)=O [sauvagine]
- denervation-induced atrophy of the tibialis anterior muscle (muscle weight) ([1]; FIG. 7A): inhibits denervation-induced atrophy
- denervation-induced atrophy of the EDL muscle (muscle weight) ([1]; FIG. 7B): inhibits denervation-induced atrophy
- hypertrophy of the non-denervated EDL muscle ([1]; FIG. 7B): statistically significant hypertrophy
- denervation-induced atrophy of the soleus muscle (muscle weight) ([1]; FIG. 7C): inhibits denervation-induced atrophy
- denervation-induced atrophy of the medial gastrocnemius muscle (muscle weight) ([1]; FIG. 7D): inhibits denervation-induced atrophy
- denervation-induced atrophy of the plantaris muscle (muscle weight) ([1]; FIG. 7E): inhibits denervation-induced atrophy
- denervation-induced atrophy of the medial gastrocnemius muscle (muscle weight) ([2]; FIG. 1, male mice, 0.01-1.0 mg/kg s.c. twice daily + 30 mg/kg theophylline, nine days): inhibits denervation-induced atrophy
- denervation-induced atrophy of the tibialis anterior muscle (muscle weight) ([2]; FIG. 2, male mice, 0.1-1.0 mg/kg/d continuous infusion by osmotic minipump, no theophylline, day nine): inhibits denervation-induced atrophy
- denervation-induced atrophy of the tibialis anterior muscle (muscle weight) ([2]; FIG. 5, male mice, 1 mg/kg/d continuous infusion by osmotic minipump, no theophylline, day nine): inhibit denervation-induced atrophy
- denervation-induced atrophy of the tibialis anterior muscle (muscle weight) ([2]; FIG. 8, female wild-type mice, 0.3 and 1.0 mg/kg/d by osmotic minipump, nine days): inhibits the atrophy
